In patent publication US20090088373A1, “USE OF COMPOSITIONS TO ENHANCE INNATE IMMUNE RESPONSE” (priority 2007, published 2009):

Key:
TLR6 = TLR6 gene expression by qPCR in NHEK; assay type: cell-based, human; settings: Example 3; 10 nM pimecrolimus, 1 nM 1.25D3
Experimental: (§1) To assess the effect of pimecrolimus on the innate immune response of the epidermis, cultures of normal human keratinocytes (NHEK) are stimulated with a combination of a concentration of 10 nM pimecrolimus and of 1 nM 1.25D3. Gene expression of TLR1, TLR2, TLR4, TLR6 and CD14 are evaluated by qPCR. For CD14 protein expression, a Western Blot is performed and bands are quantified by densitometry using lmagej. Vehicle treated keratinocytes serve as controls. Cathelicidin protein expression is evaluated by immunofluorescence staining.

CD14 = CD14 gene expression by qPCR in NHEK; assay type: cell-based, human; settings: for CD14 mRNA expression (Mean): 10 nM pimecrolimus; for CD14 mRNA expression (Means of N = 3): Example 6, 10 nM Pimecrolimus, 1 nM 1,25D3
Experimental: as §1
(§2) To assess the effect of pimecrolimus on the innate immune response of the epidermis, cultures of normal human keratinocytes (NHEK) are stimulated with a concentration of 10 nM pimecrolimus,1 nM 1.25 D3, 0.1 μg/ml TLR2/6 ligand Malp-2 or their combination. Expression of cathelicidin, CD14 and TLR2 mRNA normal human keratinocytes is measured and evaluated accordingly to the procedures as detailed in Example 2 above.
(§3) To assess the effect of time dependent effects of pimecrolimus on the innate immune response of the epidermis, cultures of normal human keratinocytes (NHEK) are stimulated with 10 nM Pimecrolimus and low dose calciferol (1,25D3) 1 nM for different time points. mRNA expression of cathelicidin, CD14 and TLR2 is analyzed by qPCR.

[1] = system: Human Beta Defensin (HBD) 2; assay: HBD2 expression in normal human keratinocytes (NHEK); assay type: cell-based; set-up: unit not given here; settings: Example 2
Experimental: (§4) To assess the effect of pimecrolimus on the innate immune response of the epidermis, cultures of normal human keratinocytes (NHEK) are stimulated with combinations of a concentration of 10 nM pimecrolimus, 1 μg/ml TLR 2/CD14 ligand—peptidoglycan (PGN), 10 μg/ml lipoteichoic acid (LTA), 2 0.1 μg/ml TLR 2/6 ligand—Malp-, and/or 0.1 μg/ml TLR 4/CD14 ligand—lipopolysaccharide (LPS). Expression of cathelicidin mRNA (Table 3) and protein as well as Human Beta Defensin (HBD) 2 (Table 4) and HBD3 (Table 5) expression in normal human keratinocytes is measured.

[2] = system: Staphylococcus aureus ΔmprF; assay: Direct co-incubation of Pimecrolimus with S. aureus ΔmprF cultures (OD600); assay type: cell-based; settings: for Bacterial growth OD600 (Mean): 10 nM Pimecrolimus co-incubated with S. aureus, no keratinocyte lysate, 37° C.
Experimental: (§5) To assess the effect of pimecrolimus on the innate immune response of the epidermis against bacteria, cultures of normal human keratinocytes (NHEK) are stimulated with a concentration of 10 nM pimecrolimus, 1 nM 1.25D3 (active 1.25 D-hydroxy calciferol) or their combination. Cells are lysed via sonication 20 minutes in an ice bath, after which cell lysates were mixed with Staphylococcus aureus ΔmprF cultures and incubated at 37° C. Bacterial growth over time is monitored by OD600 (Table 1). To determine if Pimecrolimus alone was able to kill Staphylococcus aureus ΔmprF, Pimecrolimus in a concentration of 10 nM is co-incubated with Staphylococcus aureus ΔmprF cultures and incubated at 37° C. (Table 2). Bacterial growth is monitored by OD600 (*: p<0.05; **: p<0.01; Student's t-test).

cathelicidin = assay: Cathelicidin mRNA expression in normal human keratinocytes (NHEK); assay type: cell-based; set-up: Cathelicidin mRNA expression (Mean) / Cathelicidin mRNA expression (means): unit not given here; settings: for Cathelicidin mRNA expression (means): 1 uM tacrolimus, 1 ug/ml CsA, 25ng/ml rapamycin; for Cathelicidin mRNA expression (Means of N = 3): Example 6, 10 nM Pimecrolimus, 1 nM 1,25D3
Experimental: as §4, §2
To assess the effect of pimecrolimus on the innate immune response of the epidermis, cultures of normal human keratinocytes (NHEK) are stimulated with a concentration of 10 nM pimecrolimus, 1 uM tacrolimus, 1 ug/ml CsA, 25ng/ml rapamycin, or a combination of pimecrolimus and rapamycin, each of these with or without 0.1 μg/ml TLR2/6 ligand Malp-2. Cathelicidin mRNA expression is evaluated.
as §3
To assess the effect of varying levels of pimecrolimus on the innate immune response of the epidermis, cultures of normal human keratinocytes (NHEK) are stimulated with 0 nM, 5 nM, 10 nM, 20 nM, 30 nM, […], […] and 60 nM concentrations of pimecrolimus. Expression of cathelicidin mRNA expression is measured and evaluated accordingly to the procedures as detailed in Example 2 above.
To assess the effect of calciferol on varying levels of pimecrolimus on the innate immune response of the epidermis, cultures of normal human keratinocytes (NHEK) are stimulated with 0.01 nM, 0.1 nM, 1 nM and 10 nM concentrations of pimecrolimus with or without 1 nM concentrations of calciferol for 24 hours. Expression of cathelicidin mRNA and gene expression of TLR2 is measured and evaluated accordingly to the procedures as detailed in Example 2 above.

[3] = system: Staphylococcus aureus ΔmprF; assay: Growth of S. aureus ΔmprF (OD600) mixed with lysates of stimulated normal human keratinocytes; assay type: cell-based; settings: for Bacterial growth OD600 (Mean): S. aureus + lysates of NHEK stimulated with 10 nM pimecrolimus, 1 nM 1.25D3 or combination, 37° C.
Experimental: as §5

[4] = in the presence of low dose 1,25D3 and Malp-2

CC[C@@H]1/C=C(\C)C[C@H](C)C[C@H](OC)[C@H]2O[C@@](O)(C(=O)C(=O)N3CCCC[C@H]3C(=O)O[C@H](/C(C)=C/[C@@H]3CC[C@H](Cl)[C@H](OC)C3)[C@H](C)[C@@H](O)CC1=O)[C@H](C)C[C@@H]2OC [Pimecrolimus, pimecrolimus]
TLR6 mRNA expression (Mean) (TLR6): 4.40 | CD14 mRNA expression (Mean) (CD14; Example 3, 1 nM 1.25D3): 2.07 | CD14 mRNA expression (Mean) (CD14; Example 4, 1 nM 1.25 D3, 0.1 μg/ml Malp-2 or combination): 2.07 | CD14 mRNA expression (Means of N = 3) (CD14; 0 h): 1.54 | CD14 mRNA expression (Means of N = 3) (CD14; 8 h): 1.46 | CD14 mRNA expression (Means of N = 3) (CD14; 24 h): 2.10 | CD14 mRNA expression (Means of N = 3) (CD14; 48 h): 1.04 | Effect on 1,25D3-induced CD14 mRNA expression (in words) (CD14; after 8 hours of treatment): suppressed | Effect on 1,25D3-induced CD14 mRNA expression (in words) (CD14; after 24 hours): enhanced | CD14 expression (in words) (CD14; [4]): increasing | HBD2 expression (Mean) ([1]; with 10 nM Pimecrolimus + 0.1 μg/ml LPS): 1.34 | HBD2 expression (Mean) ([1]; with 10 nM Pimecrolimus + 0.1 μg/ml Malp-2): 867.92 | HBD2 expression (Mean) ([1]; with 10 nM Pimecrolimus + 1 μg/ml PGN): 0.51 | HBD2 expression (Mean) ([1]; with 10 nM Pimecrolimus + 10 μg/ml LTA): 1.77 | HBD2 expression (Mean) ([1]; with 10 nM Pimecrolimus, no TLR ligand (control row)): 6.53 | Bacterial growth OD600 (Mean) ([2]; 0 h): 0.3083 | Bacterial growth OD600 (Mean) ([2]; 2 h): 0.3387 | Bacterial growth OD600 (Mean) ([2]; 4 h): 0.4157 | Bacterial growth OD600 (Mean) ([2]; 5 h): 0.4333 | Bacterial growth OD600 (Mean) ([2]; 6 h): 0.4227 | Bacterial growth OD600 (Mean) ([2]; 8 h): 0.601 | Direct antimicrobial effect (in words) ([2]; summary of Table 2): does not have an antimicrobial effect by itself | Cathelicidin mRNA expression (Mean) (cathelicidin; Example 2, with 10 nM Pimecrolimus + 0.1 μg/ml LPS): 8.67 | Cathelicidin mRNA expression (Mean) (cathelicidin; Example 2, with 10 nM Pimecrolimus + 0.1 μg/ml Malp-2): 26.08 | Cathelicidin mRNA expression (Mean) (cathelicidin; Example 2, with 10 nM Pimecrolimus + 1 μg/ml PGN): 9.81 | Cathelicidin mRNA expression (Mean) (cathelicidin; Example 2, with 10 nM Pimecrolimus + 10 μg/ml LTA): 18.56 | Cathelicidin mRNA expression (Mean) (cathelicidin; Example 2, with 10 nM Pimecrolimus, no TLR ligand (control row)): 2.64 | Cathelicidin mRNA expression (Mean) (cathelicidin; Example 4, 10 nM pimecrolimus, 1 nM 1.25 D3, 0.1 μg/ml Malp-2 or combination): 22.57 | Cathelicidin mRNA expression (means) (cathelicidin; Example 5, Experiment 1, with 0.1 μg/ml Malp-2, 10 nM pimecrolimus): 2.98 | Cathelicidin mRNA expression (means) (cathelicidin; Example 5, Experiment 1, without Malp-2, 10 nM pimecrolimus): 1.33 | Cathelicidin mRNA expression (means) (cathelicidin; Example 5, Experiment 2, with 0.1 μg/ml Malp-2, 10 nM pimecrolimus): 3.07 | Cathelicidin mRNA expression (means) (cathelicidin; Example 5, Experiment 2, without Malp-2, 10 nM pimecrolimus): 2.40 | Cathelicidin mRNA expression (Means of N = 3) (cathelicidin; 0 h): 1.20 | Cathelicidin mRNA expression (Means of N = 3) (cathelicidin; 8 h): 1.82 | Cathelicidin mRNA expression (Means of N = 3) (cathelicidin; 24 h): 1.75 | Cathelicidin mRNA expression (Means of N = 3) (cathelicidin; 48 h): 2.06 | Concentration at which cathelicidin mRNA expression peaks (bell-shaped dose response) (cathelicidin; Example 7): 20 nM | Cathelicidin mRNA expression (Mean) (cathelicidin; Example 7, 5 nM PIM): 1.46 | Cathelicidin mRNA expression (Mean) (cathelicidin; Example 7, 10 nM Pim): 2.26 | Cathelicidin mRNA expression (Mean) (cathelicidin; Example 7, 20 nM Pim): 82.72 | Cathelicidin mRNA expression (Mean) (cathelicidin; Example 7, 40 nM Pim): 3.37 | Cathelicidin mRNA expression (Mean) (cathelicidin; Example 7, 60 nM Pim): 1.78 | Cathelicidin mRNA expression (Mean) (cathelicidin; Example 8, 0.01 nM PIM with 1 nM 1.25D3, 24 hours): 4.56 | Cathelicidin mRNA expression (Mean) (cathelicidin; Example 8, 0.01 nM PIM, no 1.25D3, 24 hours): 1.04 | Cathelicidin mRNA expression (Mean) (cathelicidin; Example 8, 0.1 nM PIM with 1 nM 1.25D3, 24 hours): 4.19 | Cathelicidin mRNA expression (Mean) (cathelicidin; Example 8, 0.1 nM PIM, no 1.25D3, 24 hours): 0.47 | Cathelicidin mRNA expression (Mean) (cathelicidin; Example 8, 1 nM PIM with 1 nM 1.25D3, 24 hours): 10.92 | Cathelicidin mRNA expression (Mean) (cathelicidin; Example 8, 1 nM PIM, no 1.25D3, 24 hours): 1.61 | Cathelicidin mRNA expression (Mean) (cathelicidin; Example 8, 10 nM PIM with 1 nM 1.25D3, 24 hours): 99.45 | Cathelicidin mRNA expression (Mean) (cathelicidin; Example 8, 10 nM PIM, no 1.25D3, 24 hours): 9.81 | Increase of cathelicidin mRNA expression, pimecrolimus in conjunction with calciferol versus pimecrolimus alone (cathelicidin; at the 1 nM and 10 nM concentrations of pimecrolimus, 1 nM calciferol): > 2 times | Transcript and protein abundance of antimicrobial genes (in words) (cathelicidin; in the presence of Toll 2/6 ligand Malp-2, summary of Tables 3-5 (cathelicidin, HBD2, HBD3)): increases transcript and protein abundance of antimicrobial genes | Cathelicidin transcript abundance (in words) (cathelicidin; [4]): enhances cathelicidin transcript abundance | Bacterial growth OD600 (Mean) ([3]; 0 h): 0.2253 | Bacterial growth OD600 (Mean) ([3]; 2 h): 0.2557 | Bacterial growth OD600 (Mean) ([3]; 4 h): 0.2807 | Bacterial growth OD600 (Mean) ([3]; 5 h): 0.343 | Bacterial growth OD600 (Mean) ([3]; 6 h): 0.4507 | Bacterial growth OD600 (Mean) ([3]; 8 h): 0.6843 | Antimicrobial effect of keratinocytes against S. aureus ΔmprF (in words) ([3]; summary of Table 1): increases the ability of keratinocytes to kill Staphylococcus aureus ΔmprF
